Among the data in PMC7976604 (ACS Catalysis, 2021) are inhibition values, retold here.

Each structure is given as a SMILES string.

In this test the target is T1, PA0254/HudA (PA0254^UbiX) (Pseudomonas aeruginosa, UniProt Q9I6N5).
T1 sequence (Q9I6N5 1-496): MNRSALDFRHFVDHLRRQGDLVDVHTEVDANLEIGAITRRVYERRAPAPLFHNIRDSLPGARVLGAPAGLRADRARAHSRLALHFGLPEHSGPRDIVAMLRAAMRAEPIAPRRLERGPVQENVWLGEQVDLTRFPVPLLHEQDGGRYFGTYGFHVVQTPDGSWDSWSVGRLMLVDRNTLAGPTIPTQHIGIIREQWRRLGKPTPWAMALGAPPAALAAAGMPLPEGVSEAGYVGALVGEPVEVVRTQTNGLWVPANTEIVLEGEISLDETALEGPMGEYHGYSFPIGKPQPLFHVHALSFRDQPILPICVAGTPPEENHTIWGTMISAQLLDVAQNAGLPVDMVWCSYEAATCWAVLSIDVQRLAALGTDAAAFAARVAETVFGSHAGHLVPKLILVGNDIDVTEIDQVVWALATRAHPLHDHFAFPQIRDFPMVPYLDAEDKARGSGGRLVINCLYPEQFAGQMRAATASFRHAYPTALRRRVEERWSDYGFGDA
Description: inhibition of P2C decarboxylation, histidine-eluted enzyme. It counts as biochemical. As to conditions: read-out: % inhibition at 10 mM.

In general, inhibition refers to the drop in the measured response relative to a control, in per cent. Regarding `c1c[nH]cn1` [imidazole], the inhibition at 10000 µM was about 50%.
